One compound from patent publication US20090221581A1, “Methods of treating pain” (priority 2005, published 2009) can be followed below.

The subject of experiment [1] is TNFα expression in microglial cell line (EOC20). The experiment in a line: TNFα expression in microglial cells, Real-Time PCR. The format is cell-based, human. As for the experimental part: In order to validate the hypothesis that TNFα stimulation is regulated by an autocrine loop (i.e., TNFα induces expression of TNFα; see FIG. 2), a microglial cell line (EOC20) […] was stimulated in vitro by addition of TNFα (20 ng/ml).
1 hour prior to addition of TNFα, stimulated or unstimulated cells, respectively, were treated with DMSO (vehicle control), or 0.5 μM and 0.05 μM, respectively, of compound A. Cells were harvested 48 h after addition of TNFα. RNA was isolated from the samples and the amount of amplicon of TNFα (and of other cytokines) and of several housekeeping genes was measured by light cycler-based Real-Time PCR.
In general terms: In qPCR the cycle at which signal appears reflects the starting amount.

Another experiment concerns the target T1, CDK2/CycA (Homo sapiens, UniProt P24941).
T1 construct: host or cells: Sf9 insect cells, baculovirus
Kind of experiment: In vitro kinase inhibition assay, CDK2/CycA. The format is biochemical. As for the experimental part: In vitro kinase inhibition assays may be performed according to the following protocol:
Compounds are used as 1×10^−02 M stock solutions in 100% DMSO, 100 μl each in column 2 of three 96-well V-shaped microtiter plates (in the following, said plates are referred to as “master plates”).
Subsequently, the 1×10^−02 M stock solutions in column 2 of the master plates are subjected to a serial, semi-logarithmic dilution using 100% DMSO as a solvent, resulting in 10 different concentrations, the dilution endpoint being 3×10^−07 M/100% DMSO in column 12. Column 1 and 7 are filled with 100% DMSO as controls. […]
For the determination of inhibitory profiles, the following protein kinases were used: CDK2/CycA, CDK4/CycD1, CDK6/CycD1 and CDK9/CycT. […] The purity of each kinase is determined by SDS-PAGE/silver staining and the identity of each kinase is verified by western blot analysis with kinase specific antibodies or by mass spectroscopy. […]
Reaction mixtures are incubated at 30° C. for 80 minutes. […] Incorporation of ^33P is determined with a microplate scintillation counter (Microbeta, Wallac). […]
The median value of the counts in column 1 (n=8) of each assay plate is defined as “low control”. This value reflects unspecific binding of radioactivity to the plate in the absence of a protein kinase but in the presence of the substrate. […]

For the compound `COc1ccccc1-c1cc(Nc2cccc(S(N)(=O)=O)c2)ncn1` [Compound A], in experiment [1] (EOC20 cells without TNFα stimulation, 0.5 μM and 0.05 μM compound), the “TNFα message in unstimulated cells” value is given as “reduction of TNFα message”. For the same compound, the “TNFα amplicon in TNFα-stimulated cells” value in experiment [1] (EOC20 cells, TNFα 20 ng/ml, 0.5 μM and 0.05 μM compound 1 hour prior, harvested 48 h) is on record as “dose-dependent reduction”. It took 10.1 µM to reach half-maximal inhibition against CDK2/CycA (IC50).
